Data from PMC11087509, “Multimodal binding and inhibition of bacterial ribosomes by the antimicrobial peptides Api137 and Api88” (Nature Communications, 2024).
Entries after “also recorded” stand apart in the source; their conditions may differ. Where a SMILES comes first, the peptide text is derived from it. The star is where a group is joined. Orn(α-tetramethylguanidino) = CN(C)C(=N[C@@H](CCCN)C(=O)*)N(C)C

Key:
[1] = target: T1, 50S subunit (Escherichia coli, UniProt P0A7M6+P0ADZ0+P60723+P61175); test: Fluorescence polarization binding, 50S subunit; set-up: species or system E. coli
T1 construct: Ribosomes were isolated from the E. coli strain MRE600; made in house; native subunits isolated in house
Method: Several hundred grams of log-phase cells were commercially produced and purchased. Cells were washed in buffer A (20 mmol/L HEPES (pH 7.6), 6 mmol/L MgAc2, 30 mmol/L AcOK, 4 mmol/L ß-mercaptoethanol) and lysed in an M-110L microfluidizer (Microfluidics) at 17,000 psi and 4 °C. Cell debris was removed by low-speed centrifugation (15,000× g, 10 min, 4 °C) to obtain S30 lysate. Crude ribosomes, mostly containing 70S ribosomes, were pelleted by ultracentrifugation (40,000× g, 17 h, 4 °C) and resuspended in buffer A. The 70S ribosomes were separated from 30S and 50S subunits by zonal ultracentrifugation (Beckman Ti-15; 6–40% sucrose gradient in buffer A, 44,000× g, 16 h, 4 °C). The 70S-containing fractions were collected, and the ribosomes were sedimented by ultracentrifugation (40,000× g, 17 h, 4 °C). Since these 70S ribosomes still contained tRNAs and mRNA, they were resuspended in buffer B (20 mmol/L HEPES (pH 7.6), 1 mmol/L MgAc2, 0.2 mol/L NH4Ac, 4 mmol/L ß-mercaptoethanol), which allows for dissociation into 30S and 50S subunits, and subjected to a second zonal centrifugation (Beckman Ti-15, 44,000× g, 16 h, 4 °C), but this time in a 6–40% sucrose gradient prepared in buffer B. Fractions containing 30S and 50S subunits were collected, sedimented by ultracentrifugation (40,000× g, 17 h, 4 °C), resuspended in buffer A, aliquoted, shock-frozen in liquid nitrogen, and stored at −80 °C.
Dissociation constants (Kd) were determined using purified 70S ribosome, 50S or 30S subunit and cf-labeled peptides in ribosome preparation buffer. Briefly, black 384-well plates (flat bottom, 781209, Greiner Bio-One GmbH) were blocked with casein (0.5%, w/v) in PBS containing 0.05% (v/v) Tween 20 at 4 °C overnight and washed three times with phosphate buffer. A 2-fold dilution series (22 steps) of pure 70S ribosome, 50S or 30S subunit (10 μL per well) in ribosome preparation buffer was prepared in a black 384-well plate. The cf-labeled peptide was dissolved in ribosome preparation buffer (10 μL, 40 nmol/L), added to each well, centrifuged (500 x g, 2 min), and incubated at 28 ± 1 °C for 90 min. Fluorescence polarization was measured on a […]^TM microplate reader (Beckman Coulter, Krefeld, Germany) in the top reading position (λexc = 485 nm, λem = 535 nm). Data were fitted to a nonlinear dose-response logistic transition equation [y = y0 + a/(1 + (x/x0)b)] using the Levenberg-Marquardt algorithm, with Kd represented by the x0 coefficients (GraphPad Prism for Windows v. 10.1.2, San Diego, CA, USA).

[2] = target: T2, purified 70S ribosome (Escherichia coli, UniProt P0A7M6+P0ADZ0+P60723+P61175); test: Fluorescence polarization binding, purified 70S ribosome; set-up: species or system E. coli
T2 construct: obtain highly pure E. coli 70S ribosomes; made in house; host or cells: E. coli BW25113 (native ribosomes isolated, not recombinant)
Method: (§1) E. coli BW25113 were grown in LB medium and harvested by centrifugation (5000× g, 15 min, 4 °C) at an OD600 of 3-4. Cell pellets were washed in ribosome preparation buffer (20 mmol/L HEPES-KOH, 6 mmol/L MgCl2, 30 mmol/L NH4Cl, pH 7.6, 4 °C), centrifuged (4100× g, 30 min, 4 °C), and suspended in ribosome preparation buffer ([…]) containing freshly added ß-mercaptoethanol (4 mmol/L). Lysozyme was added to the resuspended cells and incubated for 30 min on ice. Cells were disrupted in six cycles using a FastPrep-24^TM 5 G instrument (MP Biomedicals, Eschwege, Germany) with the BigPrep 50 mL setting (40 s, 4.0 m/s) and one-minute incubation on ice between cycles. […]
(§2) Ribosomes were purified by anion exchange chromatography using an Äkta Pure System (GE Healthcare, Freiburg, Germany) and a CIM®QA column (8 mL, 2 µm channels; Sartorius Stedim Biotech GmbH, Göttingen, Germany). […] The ribosome concentration was estimated by recording the absorbance at 260 nm (considering that 15 AU corresponds to a ribosome concentration of 1 g/L). […]
Dissociation constants (Kd) were determined using purified 70S ribosome, 50S or 30S subunit and cf-labeled peptides in ribosome preparation buffer. […] Fluorescence polarization was measured on a […]^TM microplate reader (Beckman Coulter, Krefeld, Germany) in the top reading position (λexc = 485 nm, λem = 535 nm). […]

[3] = target: T2, purified 70S ribosome; test: Fluorescence polarization competition with cf-Api88 on purified 70S ribosome; type: binding, E. coli; settings: competition with cf-Api88, pure 70S ribosome; 28 °C
Method: as §1, §2
Inhibition constants (Ki) were determined for the pure 70S ribosome using cf-labeled and unlabeled peptides in the ribosome preparation buffer. […] Fluorescence polarization was measured on a […]^TM microplate reader in the top reading position (λexc = 485 nm, λem = 535 nm). […] The Ki values were calculated as described by Mathias and Jung[39].

[4] = target: DnaK; settings: read-out: Kd (DnaK); peer review response; cited from earlier work
Excerpt: We now introduce trigger factor in line 446 as “…molecular chaperone…” In addition, we hypothesize that Api88 binds to the ribosome within the contact area of TF, which interacts with uL23 and uL29, two proteins we report here as cross-linked to Api88.

[5] = target: recombinant TF; settings: fluorescence polarization; cited from earlier work
Excerpt: Binding sites two and three are close to uL23 and uL29, which is also supported by Api88(Y7B) cross-links. These ribosomal proteins are located adjacent to the PET exit and are binding hubs for the molecular chaperone trigger factor (TF)[34] and the signal recognition particle (SRP), a universally conserved and essential cellular machinery that directs proteins destined for membrane integration to the plasma membrane[35],[36]. This co-translational targeting is initiated by a hydrophobic signal sequence in the nascent protein chain recognized by SRP as it exits the PET. It is appealing to hypo ...

Q: What does the source list for `CC[C@H](C)[C@H](NC(=O)[C@H](Cc1ccc(O)cc1)NC(=O)[C@@H](NC(=O)[C@@H]1CCCN1C(=O)[C@H](CCCNC(=N)N)NC(=O)[C@H](CC(N)=O)NC(=O)[C@H](CC(N)=O)NC(=O)[C@H](CCCN)N=C(N(C)C)N(C)C)C(C)C)C(=O)N1CCC[C@H]1C(=O)N[C@@H](CCCNC(=N)N)C(=O)N1CCC[C@H]1C(=O)N[C@@H](CCCNC(=N)N)C(=O)N1CCC[C@H]1C(=O)N1CCC[C@H]1C(=O)N[C@@H](Cc1c[nH]cn1)C(=O)N1CCC[C@H]1C(=O)N[C@@H](CCCNC(=N)N)C(=O)N[C@@H](CC(C)C)C(N)=O` [Api88] ({Orn(α-tetramethylguanidino)}-NNRPVYIPRPRPPHPRL-NH2)?
A: Kd ([1]; apparent Kd, cf-labeled PrAMP (10 μL, 40 nmol/L), ribosome preparation buffer pH 7.6, 28 °C, 90 min, mean of triplicates): 0.58 ± 0.05 µM; Kd for 50S subunit lower than for 70S ribosome ([1]; ratio 70S / 50S, cf-labeled): threefold; Kd ([2]; apparent Kd, cf-labeled PrAMP (10 μL, 40 nmol/L), ribosome preparation buffer (20 mmol/L HEPES-KOH, 6 mmol/L MgCl2, 30 mmol/L NH4Cl, pH 7.6), 28 °C, 90 min, mean of triplicates, read-out: Kd 70S ribosome pure): 1.82 ± 0.08 µM; higher affinity of Api88 than Api137 ([2]; purified 70S ribosomes and 50S subunits): 2-3 fold

Q: Which “displacement of cf-Api88 / decrease in fluorescence polarization” value [3] does the source give for `CC[C@H]1OC(=O)[C@H](C)[C@@H](O[C@H]2C[C@@](C)(OC)[C@@H](O)[C@H](C)O2)[C@H](C)[C@@H](O[C@@H]2O[C@H](C)C[C@H](N(C)C)[C@H]2O)[C@](C)(O)C[C@@H](C)C(=O)[C@H](C)[C@@H](O)[C@]1(C)O` [erythromycin] here?
A: significantly competing with the binding of cf-Api88; also recorded: reduced the fluorescence polarization to a much lesser extent

Q: With “GNNRPVYIPQPRPPHPRL [apidaecin 1b, reference compound]” as the compound, how does the Kd [4] read?
A: ~5 µM

Q: What about the Kd [5] of the same compound?
A: > 100 µM
